Legend:
Assay type in all cases: cell-based
[1] = system: "Outer Root Sheath" Keratinozyten; experiment: Layer thickness of ORS keratinocytes in organotypic cell culture model (histology); conditions: 88 µM, 72 h
From the text: Physiologische Effekte der Behandlung mit potentiellen Wirkstoffen hinsichtlich einer Verdickung des Haares kann anhand einer Steigerung der Schichtdicke der "Outer Root Sheath" Keratinozyten im organotypischen Zellkulturmodell bestimmt werden. Dazu werden jeweils drei Modelle nach 72 stündiger Inkubation mit Wirkstoff oder mit Referrenzmedium histologisch analysiert: Fixation in 4 % Paraformaldehyd, Färbung mittels Propidiumiodid und mikroskopische Analyse. Im Folgenden wird die Dicke der ORS Keratinozytenschicht des organptypischen Modells randomisiert vermessen und die Ergebnisse werden in Relation zur unbehandelten Kontrolle dargestellt. Tabelle 5: Steigerung der Schichtdicke nach Behandlung der organptypischen Zellkultur mit Dihydroquercetin in der Konzentration von 88 µM (entspricht Extrakt der Sibirischen Lerche von 0,003%) in % im Vergleich zur unbehandelte Probe

hHa4 = experiment: Hair keratin expression by quantitative real-time PCR in organotypic cell cultures: hHa4; conditions: 88 µM, 24 h after application
From the text: (§1) Hepatocyte Growth Factor (HGF) und Keratinocyte Growth Factor (KGF) sind wichtige Wachstumsfaktoren, die von den dermalen Papillenzellen synthetisiert werden. Im Speziellen stimuliert HGF das Follikelwachstum und KGF die Keratinozytenproliferation. Entsprechend werden HGF und KGF in der Wachstumsphase vermehrt exprimiert. Diesen Eigenschaften gegenüber steht die Expression von IGFBP-3. Dieses Genprodukt führen zu einer Verschiebung des Zyklus von der Wachstums- zur Regressionsphase. […] Die differentielle Genexpression wurde mittels quantitatitiver RT-PCR (Reverse-Transkription Polymerase Kettenreaktion) bestimmt. […] Zur Quantifizierung der Genexpression wird die unbehandelte Kontrolle gleich 1 gesetzt und die Expression der zu bestimmenden Gene darauf bezogen (x-fache Expression). […]
(§2) Die Festigkeit der Haare und die Haarstruktur ist im Wesentlichen von der Zusammensetzung spezieller haarspezifischer Strukturproteine abhängig, den Haarkeratinen. […] Die Expression verschiedener Haarkeratine organotypischen Modellen kann mit Hilfe des in Beispiel 8 beschriebenen quantitativen Real-Time-PCR-Verfahrens untersucht werden. Zur Quantifizierung der Genexpression wird die Lösungsmittelkontrolle gleich 1 gesetzt und die Expression der zu bestimmenden Gene darauf bezogen (x-fache Expression). […]

[2] = system: organotypischen Zellkulturen; experiment: ATP production (ATPLite-M luminescence assay) in organotypic cell cultures; conditions: 24 h
From the text: ATP (Adenosintriphosphat) ist die universelle Speicherform für chemische Energie in Zellen. Bei der Abspaltung der distalen Phosphatgruppe entsteht ADP und Pi (anorganisches Phosphat). Diese Reaktion ist stark exergon, d.h. es wird Energie frei. Produziert wird ATP beim zellulären, oxidativen Abbau von Fetten, Kohlehydraten und Proteinen. Es dient als Energielieferant für biochemische Synthesen, für Transportvorgänge (aktiver Transport) und für mechanische Arbeit. Diese Vorgänge sind endergon, d.h. sie laufen nur unter Energiezufuhr ab. Um ihren Stoffwechsel optimal aufrecht zu erhalten, sind Zellen also auf eine ausreichende Versorgung mit ATP angewiesen. Auch dermale Papillenzellen benötigen beispielsweise zur Produktion von Wachstumsfaktoren und damit zur Steuerung des Haarzyklus ATP. Die Proliferation und Differenzierung von Haarschaftkeratinozyten ist ebenfalls an die ATP-Synthese gekoppelt, da für beide Vorgänge die Biosynthese spezifischer Proteine essentielle Voraussetzung ist. Kann durch ein Produkt die ATP-Syntheserate der haarrelevanten Zellen erhöht werden, so steht den Zellen mehr Energie zur Verfügung um Stoffwechselvorgänge und zelluläre Strukturen aufrecht zu erhalten, und um Strukturen zu erneuern, z.B. bei Reparaturprozessen oder dem Neuaufbau von Haaren.
Die ATP-Bestimmungen erfolgten mit Hilfe des ATPLiteTM-M Assays (Packard). […]

KGF [3] = experiment: KGF release into medium (ELISA) from dermal papilla cells; conditions: for Relative Ausschüttung von KGF, Mittelwert [%]: 24 h, untreated sample = 100, spread in brackets
Experimental: Der Keratinozyten Wachstumsfaktor Factor (KGF) ist ein äußerst wichtiger Regulator des Haars. Bei einer potentiell wachstumsfördernden und das Haar stärkenden Aktivsubstanz kann von einer Steigerung der ins Medium ausgeschütteten Faktoren ausgegangen werden. Die Ausschüttung von KGF kann mit Hilfe von kommerziell erhältlichen ELISA-Kits quantifiziert werden. Dazu wurden die dermalen Papillenzellen über 24 Stunden mit Dihydroquercetin in der Konzentration von 8,8 und 88 µM (entspricht Extrakt der Sibirischen Lerche von 0,003% und 0,0003%) inkubiert und die Konzentration des Wachstumsfaktors im Medium in beschriebener Weise quantifiziert. Tabelle 3: Relative Ausschüttung von KGF in [%] nach Behandlung der dermalen Papillenzellen im Vergleich zur unbehandelten Probe.

HGF [4] = experiment: Differential gene expression by quantitative RT-PCR in dermal papilla cells: HGF; conditions: for Expression HGF, Mittelwert: 24 h, untreated control = 1, spread in brackets
From the text: (§3) Hepatocyte Growth Factor (HGF) und Keratinocyte Growth Factor (KGF) sind wichtige Wachstumsfaktoren, die von den dermalen Papillenzellen synthetisiert werden. Im Speziellen stimuliert HGF das Follikelwachstum und KGF die Keratinozytenproliferation. Entsprechend werden HGF und KGF in der Wachstumsphase vermehrt exprimiert. Diesen Eigenschaften gegenüber steht die Expression von IGFBP-3. Dieses Genprodukt führen zu einer Verschiebung des Zyklus von der Wachstums- zur Regressionsphase. Nach Applikation von Substanzen, die Effekte am biologisch aktiven Teil des Haares hervorrufen, könnte die Bestimmung der Veränderungen der Expression dieser Gene Aussagen über Haarwuchsstimulantien oder -inhibitoren liefern. Die differentielle Genexpression wurde mittels quantitatitiver RT-PCR (Reverse-Transkription Polymerase Kettenreaktion) bestimmt. Nach Anzucht der dermalen Papillenzellen wurden diese für 24 h mit Dihydroquercetin in der Konzentration von 8,8 und 88 µM (entspricht Extrakt der Sibirischen Lerche von 0,003% und 0,0003%) inkubiert. Zur Durchführung der PCR wird zunächst mit Hilfe des RNeasy Mini Kits der Fa. Qiagen die RNA aus den dermalen Papillenzellen isoliert und mittels reverser Transkription in cDNA umgeschrieben. Bei der anschließenden PCR Reaktion, die mit Hilfe genspezifischer Primer für die jeweiligen haarrelevanten Gene durchgeführt wird und die der Amplifikation der gesuchten Genabschnitte dient, wird die Bildung der PCR-Produkte online über ein Fluoreszenzsignal detektiert. Das Fluoreszenzsignal ist dabei proportional zur Menge des gebildeten PCR-Produktes. Je stärker die Expression eines bestimmten Gens ist, desto größer ist die Menge an gebildetem PCR-Produkt und um so höher ist das Fluoreszenzsignal. Zur Quantifizierung der Genexpression wird die unbehandelte Kontrolle gleich 1 gesetzt und die Expression der zu bestimmenden Gene darauf bezogen (x-fache Expression). Dabei werden Werte, die größer/gleich der 2fachen Expression oder kleiner/gleich der 0.5fachen Expression der unbehandelten Kontrolle sind als signifikant differentiell exprimiert eingestuft. […]

KGF [5] = experiment: Differential gene expression by quantitative RT-PCR in dermal papilla cells: KGF; conditions: for Expression KGF, Mittelwert: 24 h, untreated control = 1, spread in brackets
From the text: as §3

KGF [6] = experiment: KGF release into medium (ELISA) from organotypic hair follicle cell cultures; conditions: 88 µM
From the text: (§4) Hepatocyte Growth Factor (HGF) und Keratinocyte Growth Factor (KGF) sind wichtige Wachstumsfaktoren, die von der dermalen Papille ausgeschüttet werden, um die Proliferation der Haarschaftkeratinozyten, die für die Synthese der Haarkeratine verantwortlich sind, zu steuern. Sie sind außerdem charakteristische Marker für die Anagenphase, in der auch die Keratinsynthese maximal ist. Darüber hinaus ist zu beachten, dass bei der Haaralterung das Proliferationsvermögen der Haarfollikelzellen abnimmt. Die Ausschüttung von HGF sowie KGF kann mit Hilfe von kommerziell erhältlichen ELISA-Kits quantifiziert werden. Dazu werden organotypische Haarfollikelzellkulturen über 72h mit Dihydroquercetin in der Konzentration 88 µM (entspricht Extrakt der Sibirischen Lerche von 0,003%) inkubiert und die Konzentration der Wachstumsfaktoren im Medium in beschriebener Weise bestimmt. Tabelle 4: Relative Ausschüttung von HGF und KGF in [%] nach Behandlung von organotypischen Haarfollikelzellkulturen im Vergleich zu unbehandelten Kontrollen.

IGFBP3 = experiment: Differential gene expression by quantitative RT-PCR in dermal papilla cells: IGFBP3; conditions: for Expression IGFBP3, Mittelwert: 24 h, untreated control = 1, spread in brackets
From the text: as §3

HGF [7] = experiment: HGF release into medium (ELISA) from organotypic hair follicle cell cultures; conditions: 88 µM
From the text: as §4

hHa3-I = experiment: Hair keratin expression by quantitative real-time PCR in organotypic cell cultures: hHa3-I; conditions: 88 µM, 24 h after application
From the text: as §1, §2

[8] = control = 1, spread in brackets
[9] = dermal papilla cells, 24 h treatment
[10] = organotypic hair follicle cell cultures, 72 h, untreated control = 100, spread in brackets

SMILES: O=C1c2c(O)cc(O)cc2OC(c2ccc(O)c(O)c2)C1O (stereo not drawn) [Dihydroquercetin, 2-(3.4-dihyrdroxy-phenyl)-3 5 7-trihydroxy-chroman-4-one]
- Steigerung der ORS Keratinozytenschichtdicke ([1]; called tendential): 11%
- Schichtdicke in % im Vergleich zur unbehandelte Probe, Mittelwert ([1]; control = 100, spread in brackets): 111 (4) %
- Keratinexpression hHa4 (result in words) (hHa4): Steigerung der Keratinexpression
- Haarkeratinexpression hHa4 (hHa4; [8]): 4,1 (1,6) x-fache Expression
- ATP-Produktion von organotypischen Zellkulturen in %, Mittelwert (Standardabweichung) ([2]; 88 µM (= 0,003% Extrakt der Sibirischen Lerche), untreated sample = 100): 138 (10) %
- Steigerung der ATP-Produktion gegenüber der unbehandelten Kontrolle ([2]; organotypic cell cultures, 88 µM): 38%
- Relative Ausschüttung von KGF, Mittelwert [%] (KGF [3]; dermal papilla cells, 88 µM): 176 (16,7) %
- Relative Ausschüttung von KGF, Mittelwert [%] (KGF [3]; dermal papilla cells, 8,8 µM): 173 (17,6) %
- Freisetzung von KGF (result in words) (KGF [3]; dermal papilla cells, 8,8 and 88 µM): signifikant erhöhten Freisetzung
- Expression HGF, Mittelwert (HGF [4]; dermal papilla cells, 88 µM): 3,62(2,11) x-fache Expression
- Expression HGF, Mittelwert (HGF [4]; dermal papilla cells, 8,8 µM): 2,90 (1,18) x-fache Expression
- Genexpression von HGF (result in words) (HGF [4]; [9]): tendenziell
- Expression KGF, Mittelwert (KGF [5]; dermal papilla cells, 88 µM): 2,18 (0,27) x-fache Expression
- Expression KGF, Mittelwert (KGF [5]; dermal papilla cells, 8,8 µM): 2,71 (0,36) x-fache Expression
- Genexpression von KGF (result in words) (KGF [5]; [9]): signifikanten Induktion
- Relative Ausschüttung von KGF, Mittelwert [%] (KGF [6]; [10]): 126 (7) %
- Freisetzung von KGF (result in words) (KGF [6]; organotypic hair model): Aktivierung der Freisetzung
- Expression IGFBP3, Mittelwert (IGFBP3; dermal papilla cells, 88 µM): 0,63(0,13) x-fache Expression
- Expression IGFBP3, Mittelwert (IGFBP3; dermal papilla cells, 8,8 µM): 0,72 (0,04) x-fache Expression
- Genexpression von IGFBP-3 (result in words) (IGFBP3; [9]): tendenziellen verminderten Expression
- Relative Ausschüttung von HGF, Mittelwert [%] (HGF [7]; [10]): 142 (15) %
- Freisetzung des Hepatozyten Wachstumsfaktor (HGF) (result in words) (HGF [7]; organotypic hair model): erhöhte Freisetzung
- Keratinexpression hHa3-I (result in words) (hHa3-I): Steigerung der Keratinexpression
- Haarkeratinexpression hHa3-I (hHa3-I; [8]): 4,1 (1,5) x-fache Expression
